Experimental data taken from patent EP0437336B1, “Biophosphoryl hydrazines and their use as pesticides” (priority 1990, dated 1991).
≈ marks a conversion by molar mass, not a printed value. Where two headings read alike, the source gives them in different places.

How the values were obtained:
Southern Armyworm [1] = assay: Biological Method D: Foliar Insecticidal Activity Test, Southern Armyworm test; assay type: in vivo, Spodoptera eridania; conditions: foliar spray; for AW 48 hrs LC50: 48 hours after treatment; for AW 96 hrs LC50: 96 hours after treatment
Method: (§1) Biological Method D: Foliar Insecticidal Activity Test
(§2) In evaluating the foliar insecticidal activity of the compounds of this invention against insects and mites, the following test procedures were employed.
(§3) Not all compounds were tested at each of the several concentrations stated above. Test concentrations of a compound were selected as those most likely to differentiate dose response of a particular compound toward a particular test insect.
(§4) Initial evaluations were made on one or more of the following pests:
(§5) For the Mexican Bean Beetle and Southern armyworm tests, individual lima bean (Phaseolus limeniss var. Woods' Prolific) leaves were placed on moistened pieces of filter paper in Petri dishes. The leaves were then sprayed with the test solution using a rotating turntable and allowed to dry. The dishes were then infested with 10 third instar larvae of either the Mexican Been Beetle or the Southern Armyworm. The dishes were then covered. Percent mortality was determined for each species and spray concentration at 48 and 96 hours after treatment.
(§6) The mortalities obtained in this manner were plotted on logarithmic probability paper.
(§7) The rotating turntable consists of a fixed, continuously operating spray nozzle under which targets are rotated at a fixed speed and distance. If the target is a Petri dish (such as for the bean beetle, armyworm, mite, or aphid tests), the distance from the nozzle is 38.1 cm (15 inches). If the target is a Mason jar (such as for the boll weevil test), the distance from the nozzle is 17.8 cm (7 inches). The nozzle is located 8 inches from the rotating shaft. The targets on individual platforms revolve around the shaft at 1 revolution per 20 seconds but only a brief portion of this time occurs in the spray path. Targets pass only once under the nozzle and then are removed to drying hoods.
(§8) The nozzle used is a 1/4 JCO Spraying Systems (Wheaton, Illinois) air atomizing nozzle equipped with a No. 2850 fluid cap and a No. 70 air cap. At the 68.95 x 10³ Pa gauge (10 psig) air pressure used and with liquid siphon feed, 1.89 ℓ/hr [0.5 GPH (gallons per hour)] are delivered in a round spray pattern with a 21 degree spray angle. Targets are misted with spray droplets to the point that the droplets coalesce to form a uniform thin film insufficient to drown test organisms.

Mexican Bean Beetle = assay: Biological Method D: Foliar Insecticidal Activity Test, Mexican Bean Beetle test; assay type: in vivo, Epilachna varivestis; conditions: Epilachna varivestis, foliar spray
Method: as §1, §2, §3, §4, §5, §6, §7, §8

[2] = system: southern corn rootworm, Diabrotica undecimpunctata howardi; assay: Biological Method A: Corn Rootworm Screening Test (treated non-aggressive soil); conditions: soil concentration giving 90% mortality, 10 days at 27°C
Boll Weevil [3] = assay: Biological Method D: Foliar Insecticidal Activity Test, boll weevil test; assay type: in vivo, Anthonomous grandis; conditions: spray into jar
Method: as §1, §2, §3, §4
(§9) For the boll weevil test, 10 adult weevils were placed in a 0.24 ℓ (0.5 pint) glass Mason jar containing a small cube of apple. The weevils were confined to the jar by fiberglass screen mesh secured by a screw-type rim cap. The jars were then sprayed with the test solution using a rotating turntable; directing the spray through the mesh into the jar. The percentage killed was determined after forty-eight and ninety six hours.
as §6, §7, §8

Green Peach Aphid [4] = assay: Biological Method D: Foliar Insecticidal Activity Test, aphid test; assay type: in vivo, Myzus persicae; conditions: foliar spray; kill after twenty-four hours
Method: as §1, §2, §3, §4
(§10) For the aphid test, infested broccoli (Brassica oleracea italica var. DiCicco) leaves containing about 50 aphids were placed in a Petri dish lid on a moistened piece of cotton. The leaves were then sprayed to thorough wetness with the test solution using a rotating turntable, held for twenty-four hours and then the percentage killed was determined.
as §6, §7, §8

Two-Spotted Spider Mite = assay: Biological Method D: Foliar Insecticidal Activity Test, mite test; assay type: in vivo, Tetranychus urticae; conditions: for LC50: Tetranychus urticae
Method: as §1, §2, §3, §4
as §10, with “mite” for “aphid”, “bean (Phaseolus limensis” for “broccoli (Brassica oleracea italica”, “Woods Prolific) leaf discs [3.18 cm (1.25") in diameter]” for “DiCicco) leaves”, “mites” for “aphids”
as §6, §7, §8

[5] = system: southern corn rootworm, Diabrotica undecimpunctata howardi; conditions: at-planting soil application
Green Peach Aphid [6] = assay: Biological Method D: Foliar Insecticidal Activity Test, aphid test; assay type: in vivo, Myzus persicae; design: key: I = inactive at concentration listed
Method: as §1, §2, §3, §4, §10, §6, §7, §8

Boll Weevil [7] = assay: Biological Method D: Foliar Insecticidal Activity Test, boll weevil test; assay type: in vivo, Anthonomous grandis; design: key: I = inactive at concentration listed
Method: as §1, §2, §3, §4, §9, §6, §7, §8

Southern Armyworm [8] = assay: Biological Method D: Foliar Insecticidal Activity Test, Southern Armyworm test; assay type: in vivo, Spodoptera eridania; design: key: I = inactive at concentration listed
Method: as §1, §2, §3, §4, §5, §6, §7, §8

[9] = system: southern corn rootworm, Diabrotica undecimpunctata howardi; conditions: percent control relative to infested check, from root damage ratings; 14 days post-spraying
[10] = 48 hours after treatment, read-out: BB 48 hrs. LC50
[11] = 96 hours after treatment, read-out: BB 96 hrs LC50
[12] = foliar spray, kill after twenty-four hours
[13] = 24 h, foliar spray, kill after twenty-four hours, read-out: TSM LC50

Row | SMILES | AW 48 hrs LC50 (Southern Armyworm [1]) | AW 96 hrs LC50 (Southern Armyworm [1]) | LC50 (Mexican Bean Beetle; [10]) [µg/mL] | LC50 (Mexican Bean Beetle; [11]) [µg/mL] | primary nonagressive Method A crw LC90 [2] [ppm] | BW 48 hrs LC50 (Boll Weevil [3]) | BW 96 hrs LC50 (Boll Weevil [3]) | GPA LC50 (Green Peach Aphid [4]) | TSM LC50 (Two-Spotted Spider Mite; [12]) | secondary aggressive Method C crw LC50 ([5]; rated 17 days post-infestation) [kg/ha] | secondary aggressive Method C crw LC50 ([5]; value in brackets) [lb/acre] | LC50 GPA (Green Peach Aphid [6]) | LC50 BW 48 hrs (Boll Weevil [7]; 48 hrs) | LC50 BW 96 hrs (Boll Weevil [7]; 96 hrs) | LC50 AW 48 hrs (Southern Armyworm [8]; 48 hrs) | LC50 AW 96 hrs (Southern Armyworm [8]; 96 hrs) | foliar systemic nonagressive Method B crw % control at 0.56 kg/ha (0.5 lb/acre) [9] [%] | LC50 (Two-Spotted Spider Mite; Method D foliar test, Two-Spotted Spider Mite, read-out: LC50 TSM) [µg/mL] | LC50 (Two-Spotted Spider Mite; [13]) [µg/mL]
1 | CCCOP(=S)(NNP(=S)(OCC)N1CCCCC1)OCCC (centres unmarked) [Compound 64] | I | I | 740 (≈ 1830 µM) | 740 (≈ 1830 µM) | 8.6 | I | I | I | I | – | – | – | – | – | – | – | – | – | –
2 | CCOP(=S)(NNP(=S)(OCC)OCC(C)C)OCC(C)C (centres unmarked) [Compound 66, reference compound] | I | I | – | 150 (≈ 382 µM) | 0.09 | I | I | I | I | ~1.91 | ~1.7 | – | – | – | – | – | – | – | –
3 | CCCCOP(=S)(NNP(=S)(OCC)OCC)OCC (centres unmarked) [Compound 7] | – | – | – | – | 0.25 | – | – | – | – | – | – | I | I | I | I | I | 38 | 150 (≈ 412 µM) | –
4 | CCCCCCOP(=S)(NNP(=S)(OCC)OCC)OCC (centres unmarked) [Compound 77] | I | I | 150 (≈ 382 µM) | 150 (≈ 382 µM) | 1.1 | I | I | I | I | – | – | – | – | – | – | – | – | – | –
5 | CCCOP(=S)(NNP(=S)(OCC)OC(C)(C(F)(F)F)C(F)(F)F)OCC (centres unmarked) [Compound 70] | I | I | 500 (≈ 1030 µM) | 45 (≈ 92.5 µM) | 1.1 | I | I | I | I | – | – | – | – | – | – | – | – | – | –
6 | CCOP(=S)(NNP(=S)(OCC)OC(C)CC)OC(C)CC (centres unmarked) [Compound 65, N-(O-ethyl O-secbutylthiophosphoryl) N′-(O-ethyl O-secbutylthiophosphoryl) hydrazine, reference compound] | I | I | 360 (≈ 917 µM) | 62 (≈ 158 µM) | 0.09 | I | I | I | – | 0.44 | 0.39 | – | – | – | – | – | – | – | 245 (≈ 624 µM)
7 | CCOP(=S)(NNP(=S)(OCC)N(C)CC)OCC (centres unmarked) [Compound 75] | I | I | 500 (≈ 1430 µM) | 150 (≈ 429 µM) | 1.1 | I | I | I | – | – | – | – | – | – | – | – | – | – | 150 (≈ 429 µM)
8 | CCOP(=S)(NNP(=S)(OCC(C)(C)C)OC(C)C)OCC (centres unmarked) [Compound 68] | I | I | 500 (≈ 1270 µM) | 150 (≈ 382 µM) | 1.1 | I | I | I | – | – | – | – | – | – | – | – | – | – | 520 (≈ 1320 µM)
